This passage reports carcinogen call and TD50 results from PubChem BioAssay AID1745844 (Carcinogenic Potency Database (CPDB), 2022).

Activity calls are given as the source filed them. No rule for the calls is given here.

The term TD50 denotes the dose at which the toxic effect under study appears in half of the subjects.

The data set has as its system rodent lifetime carcinogenesis bioassay, tumor incidence TD50. As to the kind of experiment: chronic cancer bioassays in animals – CPDB, compiled studies (AID 1745844).

Turning to `O=[N+]([O-])c1ccc(-c2cnc3ccccn23)o1`, the carcinogen call is, setting by setting: (mouse, strain CTM, females, in feed, site: any site (literature study), lesion: several types, types named in the paper, dosed 40 weeks, study length 79 weeks) “positive”; (mouse, strain CTM, females, in feed, site: liver, lesion: hepatoma, dosed 40 weeks, study length 79 weeks) “negative (inactive)”; (mouse, strain CTM, females, in feed, site: lung, lesion: one or several types, types not named, dosed 40 weeks, study length 79 weeks) “negative (inactive)”; (mouse, strain CTM, males, in feed, site: liver, lesion: hepatoma, dosed 40 weeks, study length 73 weeks) “negative (inactive)”. Moreover, the TD50 was 21.6 mg/kg/day (mouse, strain CTM, females, in feed, site: several sites, sites named in the paper, lesion: carcinoma, dosed 40 weeks, study length 79 weeks); 117 mg/kg/day (mouse, strain CTM, females, in feed, site: several sites, sites named in the paper, lesion: papilloma, dosed 40 weeks, study length 79 weeks); 781 mg/kg/day (mouse, strain CTM, females, in feed, site: thyroid gland, lesion: lymphosarcoma, dosed 40 weeks, study length 79 weeks); 57.1 mg/kg/day (mouse, strain CTM, males, in feed, site: any site (literature study), lesion: several types, types named in the paper, dosed 40 weeks, study length 73 weeks); 763 mg/kg/day (inactive) (mouse, strain CTM, males, in feed, site: lung, lesion: one or several types, types not named, dosed 40 weeks, study length 73 weeks); 40.1 mg/kg/day (mouse, strain CTM, males, in feed, site: several sites, sites named in the paper, lesion: carcinoma, dosed 40 weeks, study length 73 weeks). The TD50 reads like this: (mouse, strain CTM, males, in feed, site: several sites, sites named in the paper, lesion: papilloma, dosed 40 weeks, study length 73 weeks) 65.8 mg/kg/day; (rat, strain Wistar, females, in feed, site: any site (literature study), lesion: several types, types named in the paper, dosed 40 weeks, study length 89 weeks) 15.8 mg/kg/day; (rat, strain Wistar, females, in feed, site: kidney, lesion: one or several types, types not named, dosed 40 weeks, study length 89 weeks) 116 mg/kg/day; (rat, strain Wistar, females, in feed, site: liver, lesion: hepatoma, dosed 40 weeks, study length 89 weeks) 644 mg/kg/day; (rat, strain Wistar, females, in feed, site: mammary tissue, wider than the gland, lesion: one or several types, types not named, dosed 40 weeks, study length 89 weeks) 33.3 mg/kg/day; (rat, strain Wistar, females, in feed, site: several sites, sites named in the paper, lesion: carcinoma, dosed 40 weeks, study length 89 weeks) 443 mg/kg/day. The TD50 was 27.5 mg/kg/day (rat, strain Wistar, females, in feed, site: several sites, sites named in the paper, lesion: papilloma, dosed 40 weeks, study length 89 weeks); 11.9 mg/kg/day (rat, strain Wistar, males, in feed, site: any site (literature study), lesion: several types, types named in the paper, dosed 40 weeks, study length 83 weeks); 21.4 mg/kg/day (rat, strain Wistar, males, in feed, site: kidney, lesion: one or several types, types not named, dosed 40 weeks, study length 83 weeks); 959 mg/kg/day (rat, strain Wistar, males, in feed, site: liver, lesion: hepatoma, dosed 40 weeks, study length 83 weeks); 104 mg/kg/day (rat, strain Wistar, males, in feed, site: several sites, sites named in the paper, lesion: carcinoma, dosed 40 weeks, study length 83 weeks); 43.7 mg/kg/day (rat, strain Wistar, males, in feed, site: several sites, sites named in the paper, lesion: papilloma, dosed 40 weeks, study length 83 weeks).

With `CC=CCl`, the TD50 is 5.05 mg/kg/day (mouse, strain Ha/ICR, females, by gavage, site: forestomach, lesion: one or several types, types not named, dosed 89 weeks, study length 89 weeks) and 16.7 mg/kg/day (mouse, strain Ha/ICR, males, by gavage, site: forestomach, lesion: one or several types, types not named, dosed 89 weeks, study length 89 weeks).

For `CC(C)(C)c1cc(CO)cc(C(C)(C)C)c1O`, the TD50 reads like this: (rat, strain NZBW (hooded black and white strain), females, in feed, site: any site (literature study), lesion: several types, types named in the paper, dosed 104 weeks, study length 104 weeks) 3710 mg/kg/day (inactive); (rat, strain NZBW (hooded black and white strain), females, in feed, site: mammary gland, lesion: fibroadenoma, dosed 104 weeks, study length 104 weeks) 3710 mg/kg/day (inactive). For the setting “rat, strain NZBW (hooded black and white strain), males, in feed, site: any site (literature study), lesion: one or several types, types not named, dosed 104 weeks, study length 104 weeks”, the carcinogen call was “negative (inactive)”.

On to `CC[C@@H]1NC(=O)[C@@H]2[C@H](Cl)[C@H](Cl)CN2C(=O)[C@H](CO)NC(=O)C[C@H](c2ccccc2)NC(=O)[C@H](CO)NC1=O`, for which the TD50 was 99.5 mg/kg/day (mouse, strain ddNi, males, in feed, site: liver, lesion: hepatoma, dosed 160 weeks, study length 160 weeks); 48.6 mg/kg/day (mouse, strain ddNi, males, in feed, site: liver, lesion: liver-cell adenoma, dosed 160 weeks, study length 160 weeks); 98.9 mg/kg/day (mouse, strain ddNi, males, in feed, site: liver, lesion: liver-cell carcinoma, dosed 160 weeks, study length 160 weeks); 23.6 mg/kg/day (mouse, strain ddNi, males, in feed, site: liver, lesion: several types, types named in the paper, dosed 160 weeks, study length 160 weeks).

For the compound `CC1(C)C(=O)Nc2ccc(C3=NNC(=O)CC3)cc21`, the TD50 (rat, strain Fischer 344, females, in feed, site: adrenal medulla, lesion: pheochromocytoma, benign, dosed 104 weeks, study length 104 weeks) stood at 5.05 mg/kg/day; the TD50 (rat, strain Fischer 344, females, in feed, site: adrenal medulla, lesion: several types, types named in the paper, dosed 104 weeks, study length 104 weeks) was 4.82 mg/kg/day; the TD50 (rat, strain Fischer 344, males, in feed, site: adrenal medulla, lesion: pheochromocytoma, benign, dosed 95 weeks, study length 95 weeks) amounted to 1.38 mg/kg/day; the TD50 (rat, strain Fischer 344, males, in feed, site: adrenal medulla, lesion: pheochromocytoma, malignant, dosed 95 weeks, study length 95 weeks) came to 23.8 mg/kg/day; the TD50 (rat, strain Fischer 344, males, in feed, site: adrenal medulla, lesion: several types, types named in the paper, dosed 95 weeks, study length 95 weeks) is 1.27 mg/kg/day.

Turning to `Nc1cc(Cl)c(N)c(Cl)c1`, the TD50 runs as follows: (mouse, strain B6C3F1, females, in feed, site: any site (literature study), lesion: several types, types named in the paper, dosed 103 weeks, study length 111 weeks) 801 mg/kg/day; (mouse, strain B6C3F1, females, in feed, site: liver, lesion: hepatocellular adenoma + hepatocellular carcinoma + neoplastic nodule, dosed 103 weeks, study length 111 weeks) 883 mg/kg/day; (mouse, strain B6C3F1, females, in feed, site: liver, lesion: hepatocellular adenoma + hepatocellular carcinoma, dosed 103 weeks, study length 111 weeks) 883 mg/kg/day; (mouse, strain B6C3F1, females, in feed, site: liver, lesion: hepatocellular carcinoma, dosed 103 weeks, study length 111 weeks) 2030 mg/kg/day; (mouse, strain B6C3F1, females, in feed, site: lung, lesion: alveolar/bronchiolar adenoma + alveolar/bronchiolar carcinoma, dosed 103 weeks, study length 111 weeks) 42100 mg/kg/day; (mouse, strain B6C3F1, males, in feed, site: any site (literature study), lesion: several types, types named in the paper, dosed 103 weeks, study length 111 weeks) 1730 mg/kg/day. Also, the TD50 reads like this: (mouse, strain B6C3F1, males, in feed, site: liver, lesion: hepatocellular adenoma + hepatocellular carcinoma + neoplastic nodule, dosed 103 weeks, study length 111 weeks) 737 mg/kg/day; (mouse, strain B6C3F1, males, in feed, site: liver, lesion: hepatocellular adenoma + hepatocellular carcinoma, dosed 103 weeks, study length 111 weeks) 737 mg/kg/day; (mouse, strain B6C3F1, males, in feed, site: liver, lesion: hepatocellular adenoma, dosed 103 weeks, study length 111 weeks) 933 mg/kg/day; (rat, strain Fischer 344, females, in feed, site: liver, lesion: hepatocellular adenoma + hepatocellular carcinoma + neoplastic nodule, dosed 103 weeks, study length 111 weeks) 2960 mg/kg/day; (rat, strain Fischer 344, males, in feed, site: any site (literature study), lesion: several types, types named in the paper, dosed 103 weeks, study length 111 weeks) 914 mg/kg/day (inactive); (rat, strain Fischer 344, males, in feed, site: liver, lesion: hepatocellular adenoma + hepatocellular carcinoma + neoplastic nodule, dosed 103 weeks, study length 111 weeks) 340 mg/kg/day. The carcinogen call (rat, strain Fischer 344, females, in feed, site: any site (literature study), lesion: several types, types named in the paper, dosed 103 weeks, study length 111 weeks) is “negative (inactive)”.

`O=NN1CCCN(N=O)CC1`: the TD50 reads like this: (rat, strain Fischer 344, females, in drinking water, site: esophagus, lesion: several types, types named in the paper, dosed 30 weeks, study length 133 weeks) 0.253 mg/kg/day; (rat, strain Fischer 344, females, in drinking water, site: esophagus, lesion: several types, types named in the paper, dosed 60 weeks, study length 82 weeks) 0.0553 mg/kg/day; (rat, strain Fischer 344, females, in drinking water, site: esophagus, lesion: several types, types named in the paper, dosed 120 weeks, study length 133 weeks) 0.105 mg/kg/day; (rat, strain Fischer 344, females, in drinking water, site: liver, lesion: several types, types named in the paper, dosed 120 weeks, study length 133 weeks) 0.0973 mg/kg/day; (rat, strain Fischer 344, females, in drinking water, site: nasal cavity, lesion: olfactory carcinoma, dosed 60 weeks, study length 82 weeks) 0.207 mg/kg/day; (rat, strain Fischer 344, females, in drinking water, site: tongue, lesion: basal-cell papilloma, dosed 120 weeks, study length 133 weeks) 0.63 mg/kg/day. The TD50 is 0.24 mg/kg/day (rat, strain Fischer 344, females, in drinking water, site: upper gastrointestinal tract, lesion: carcinoma, dosed 30 weeks, study length 133 weeks); 0.0469 mg/kg/day (rat, strain Fischer 344, females, in drinking water, site: upper gastrointestinal tract, lesion: carcinoma, dosed 60 weeks, study length 82 weeks); 0.708 mg/kg/day (rat, strain Fischer 344, females, in drinking water, site: upper gastrointestinal tract, lesion: several types, types named in the paper, dosed 30 weeks, study length 133 weeks); 0.0297 mg/kg/day (rat, strain Fischer 344, females, in drinking water, site: upper gastrointestinal tract, lesion: several types, types named in the paper, dosed 60 weeks, study length 82 weeks); 0.0914 mg/kg/day (rat, strain Fischer 344, females, in drinking water, site: upper gastrointestinal tract, lesion: several types, types named in the paper, dosed 120 weeks, study length 133 weeks). Moreover, the carcinogen call is, setting by setting: (rat, strain Fischer 344, females, in drinking water, site: liver, lesion: several types, types named in the paper, dosed 30 weeks, study length 133 weeks) “positive”; (rat, strain Fischer 344, females, in drinking water, site: nasal cavity, lesion: olfactory carcinoma, dosed 30 weeks, study length 133 weeks) “positive”.

Consider `O=C(O)CCC(=O)O`, for which the TD50 reads like this: (rat, strain F344/DuCrj, females, in drinking water, site: any site (literature study), lesion: one or several types, types not named, dosed 104 weeks, study length 113 weeks) 4820 mg/kg/day (inactive); (rat, strain F344/DuCrj, males, in drinking water, site: liver, lesion: hepatocellular carcinoma, dosed 104 weeks, study length 113 weeks) 54700 mg/kg/day (inactive). The carcinogen call is “negative (inactive)” (rat, strain F344/DuCrj, females, in drinking water, site: liver, lesion: one or several types, types not named, dosed 104 weeks, study length 113 weeks); “negative (inactive)” (rat, strain F344/DuCrj, males, in drinking water, site: any site (literature study), lesion: one or several types, types not named, dosed 104 weeks, study length 113 weeks); “negative (inactive)” (rat, strain F344/DuCrj, males, in drinking water, site: liver, lesion: hepatocellular adenoma, dosed 104 weeks, study length 113 weeks).

In the case of `c1ccc2c(c1)ccc1cc3c(ccc4ccccc43)cc12`, where the note is “mouse, strain DBA/2, males, in drinking water, site: lung, lesion: alveolar-cell carcinoma, dosed 60 weeks, study length 60 weeks”, the TD50 is 5.88 mg/kg/day.
